Laboratory results: US20250215039A1, “NUCLEOSIDES FOR TREATING CANCER” (PRIMEFOUR THERAPEUTICS, INC., priority 2022, published 2025)
Where two headings read alike, the source gives them in different places.

Test system: cancer cell lines
Assay: Cancer cell proliferation activity (CellTiterGlo, 72 h)
Format: cell-based
Settings: 72 h, 72 h, read-out: IC50
Method in brief: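 Cells seeded overnight at 37 °C, then dosed with compound at 0.1% final DMSO and incubated 72 h at 37 °C (5% or 10% CO2 by medium).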

Question: What does the source list for `Nc1nc(F)nc2c1ncn2[C@H]1C[C@H](O)[C@](CO)(CF)O1` [compound 150, (2R,3S,5R)-5-(6-amino-2-fluoro-9H-purin-9-yl)-2-(fluoromethyl)-2-(hydroxymethyl)tetrahydrofuran-3-ol]?
Answer: IC50 (5637 cell line (bladder)): 4.05 µM; IC50 (AS49 cell line (lung)): > 50 µM; IC50 (CLS439 cell line (bladder)): > 50 µM; IC50 (HS729 cell line (muscle)): 12.3 µM; IC50 (JAR cell line (placenta)): 1.74 µM; IC50 (Homo sapiens, 22Rv1, 72 h, 22RV1 cell line (prostate)): > 50 µM; IC50 (Homo sapiens, 786-0, 72 h, 786O cell line (kidney)): 2.06 µM; IC50 (Homo sapiens, A204, 72 h, A204 cell line (muscle)): 3.33 µM; IC50 (Homo sapiens, A673, 72 h, A673 cell line (bone)): > 50 µM; IC50 (Homo sapiens, A2780, 72 h, A2780 cell line (ovary)): 4.62 µM; IC50 (Homo sapiens, A-375, 72 h, A375 cell line (skin)): 2.32 µM; IC50 (Homo sapiens, A-431, 72 h, A431 cell line (skin)): 2.32 µM; IC50 (Homo sapiens, ACHN, ACHN cell line (kidney)): > 50 µM; IC50 (Homo sapiens, ASPC1, 72 h, ASPC1 cell line (pancreas)): 2.3 µM; IC50 (Homo sapiens, BT-20, 72 h, BT20 cell line (breast)): 2.03 µM; IC50 (Homo sapiens, BXPC-3, 72 h, BXPC3 cell line (pancreas)): > 50 µM; IC50 (Homo sapiens, C-33-A, C33A cell line (cervical)): 4.21 µM; IC50 (Homo sapiens, CAKI-1, 72 h, CAKI1 cell line (kidney)): 0.32 µM; IC50 (Homo sapiens, COLO 205, 72 h, COLO205 cell line (colon)): > 50 µM; IC50 (Homo sapiens, COLO-678, 72 h, COLO678 cell line (colon)): > 50 µM; IC50 (Homo sapiens, Ca-Ski, CASKI cell line (cervical)): 1.69 µM; IC50 (Homo sapiens, Caco-2, 72 h, CACO2 cell line (colon)): 3.6 µM; IC50 (Homo sapiens, Calu-6, 72 h, CALU6 cell line (lung)): 4.12 µM; IC50 (Homo sapiens, DLD-1, 72 h, DLD1 cell line (colon)): > 50 µM; IC50 (Homo sapiens, DU-145, 72 h, DU145 cell line (prostate)): 1.47 µM; IC50 (Homo sapiens, EFO-21, 72 h, EFO21 cell line (ovary)): 3.32 µM; IC50 (Homo sapiens, EJ-28, 72 h, EJ28 cell line (bladder)): 3.49 µM; IC50 (Homo sapiens, Granta-519, 72 h, GRANTA-519 cell line (hematological)): 4.01 µM; IC50 (Homo sapiens, HCT-15, 72 h, HCT15 cell line (colon)): > 50 µM; IC50 (Homo sapiens, HCT-116, 72 h, HCT116 cell line (colon)): 2.89 µM; IC50 (Homo sapiens, HEK293, 72 h, HEK293 cell line (kidney)): 2.46 µM; IC50 (Homo sapiens, HL-60, 72 h, HL-60 cell line (hematological)): 3.85 µM; IC50 (Homo sapiens, HT-29, 72 h, HT29 cell line (colon)): 1.46 µM; IC50 (Homo sapiens, HT-1080, 72 h, HT1080 cell line (connective tissue)): > 50 µM; IC50 (Homo sapiens, HeLa, HELA cell line (cervical)): 4.53 µM; IC50 (Homo sapiens, HepG2, 72 h, HEPG2 cell line (liver)): 2.96 µM; IC50 (Homo sapiens, Hs-578T, HS578T cell line, breast): 6.12 µM; IC50 (Homo sapiens, IGROV-1, 72 h, IGROV1 cell line (ovary)): 2.03 µM; IC50 (Homo sapiens, IMR-90, 72 h, IMR90 cell line, lung): 4.24 µM; IC50 (Homo sapiens, J82, 72 h, J82 cell line (bladder)): 4.64 µM; IC50 (Homo sapiens, JEG-3, 72 h, JEG3 cell line (placenta)): 2.82 µM; IC50 (Homo sapiens, JIMT-1, 72 h, JIMT1 cell line (breast)): 1.23 µM; IC50 (Homo sapiens, K562, 72 h, K-562 cell line (hematological)): > 50 µM; IC50 (Homo sapiens, Kasumi 1, 72 h, KASUMI-1 cell line (hematological)): 2.16 µM; IC50 (Homo sapiens, L-363, 72 h, L-363 cell line (hematological)): 3.36 µM; IC50 (Homo sapiens, LoVo, LOVO cell line (colon)): 1.61 µM; IC50 (Homo sapiens, MCF7, 72 h, MCF7 cell line (breast)): > 50 µM; IC50 (Homo sapiens, MDA-MB-231, 72 h, MDAMB231 cell line (breast)): > 50 µM; IC50 (Homo sapiens, MDA-MB-435, 72 h, MDAMB435 cell line (skin)): > 50 µM; IC50 (Homo sapiens, MDA-MB-436, 72 h, MDAMB436 cell line (breast)): 3.22 µM; IC50 (Homo sapiens, MDA-MB-468, 72 h, MDAMB468 cell line (breast)): 4.45 µM; IC50 (Homo sapiens, MG-63, 72 h, MG63 cell line (bone)): > 50 µM; IC50 (Homo sapiens, MHH-ES-1, 72 h, MHHES1 cell line (bone)): 2.91 µM; IC50 (Homo sapiens, MIA PaCa-2, 72 h, MIAPACA2 cell line (pancreas)): > 50 µM; IC50 (Homo sapiens, MINO, MINO cell line (hematological)): 1.08 µM; IC50 (Homo sapiens, MV4-11, 72 h, MV4-11 cell line (hematological)): 0.63 µM; IC50 (Homo sapiens, NCI-H23, 72 h, NCI-H23 cell line (lung)): 3.29 µM; IC50 (Homo sapiens, NCI-H82, 72 h, NCIH82 cell line (lung)): 3.77 µM; IC50 (Homo sapiens, NCI-H292, 72 h, NCIH292 cell line (lung)): > 50 µM; IC50 (Homo sapiens, NCI-H460, 72 h, NCIH460 cell line (lung)): 3.37 µM; IC50 (Homo sapiens, OVCAR-3, 72 h, OVCAR3 cell line (ovary)): 2.05 µM; IC50 (Homo sapiens, OVCAR-4, 72 h, OVCAR4 cell line (ovary)): 3.52 µM; IC50 (Homo sapiens, PANC-1, 72 h, PANC1 cell line (pancreas)): > 50 µM; IC50 (Homo sapiens, PC-3, 72 h, PC3 cell line (prostate)): 5.77 µM; IC50 (Homo sapiens, PLC-PRF-5, 72 h, PLCPRF5 cell line (liver)): > 50 µM; IC50 (Homo sapiens, Panc1005, 72 h, PANC1005 cell line (pancreas)): 1.41 µM; IC50 (Homo sapiens, RD, RD cell line (muscle)): 6.72 µM; IC50 (Homo sapiens, Ramos, RAMOS cell line (hematological)): 2.44 µM; IC50 (Homo sapiens, SAOS-2, 72 h, SAOS2 cell line (bone)): 3.56 µM; IC50 (Homo sapiens, SF-268, 72 h, SF268 cell line (brain)): > 50 µM; IC50 (Homo sapiens, SF-295, 72 h, SF295 cell line (brain)): > 50 µM; IC50 (Homo sapiens, SK-BR-3, 72 h, SKBR3 cell line (breast)): 1.33 µM; IC50 (Homo sapiens, SK-HEP1, 72 h, SKHEP1 cell line (liver)): > 50 µM; IC50 (Homo sapiens, SK-LMS-1, 72 h, SKLMS1 cell line (uterus)): 2.29 µM; IC50 (Homo sapiens, SK-MEL-5, 72 h, SKMEL5 cell line, skin): > 50 µM; IC50 (Homo sapiens, SK-MEL-28, 72 h, SKMEL28 cell line (skin)): 9.02 µM; IC50 (Homo sapiens, SK-N-AS, SKNAS cell line (brain)): 6.83 µM; IC50 (Homo sapiens, SK-N-SH, SKNSH cell line (brain)): 2.91 µM; IC50 (Homo sapiens, SK-OV-3, 72 h, SKOV3 cell line (ovary)): 3.62 µM; IC50 (Homo sapiens, SNB-75, 72 h, SNB75 cell line (brain)): 14.9 µM; IC50 (Homo sapiens, SU-DHL10, 72 h, SU-DHL-10 cell line (hematological)): 2.62 µM; IC50 (Homo sapiens, SU-DHL-6, 72 h, SU-DHL-6 cell line (hematological)): 2.1 µM; IC50 (Homo sapiens, SW-620, 72 h, SW620 cell line (colon)): 3.12 µM; IC50 (Homo sapiens, T-24, 72 h, T24 cell line (bladder)): 6.26 µM; IC50 (Homo sapiens, TE-671, 72 h, TE671 cell line (muscle)): 12.6 µM; IC50 (Homo sapiens, THP-1, 72 h, THP-1 cell line (hematological)): 5.5 µM; IC50 (Homo sapiens, U2OS, U2OS cell line (bone)): > 50 µM; IC50 (Homo sapiens, U-87 MG, U87MG cell line (brain)): > 50 µM; IC50 (Homo sapiens, UMUC3, 72 h, UMUC3 cell line (bladder)): > 50 µM; IC50 (Homo sapiens, UO-31, 72 h, UO31 cell line (kidney)): 4.54 µM; IC50 (Homo sapiens, WSU-NHL, WSU-NHL cell line (hematological)): 4.87 µM; IC50 (MT-3, 72 h, MT3 cell line (breast)): 3.9 µM; IC50 (NCI-H358M, NCIH358M cell line (lung)): 2.63 µM; IC50 (PBMC, PBMC (hematological)): > 50 µM; IC50 (RD-ES, RDES cell line (bone)): 4.48 µM
